ChEMBL document CHEMBL5537135, “Novel antimicrobial peptides modified with fluorinated sulfono-γ-AA having high stability and targeting multidrug-resistant bacteria infections” (Eur J Med Chem, 2024)
In brackets after ≈: the same amount, converted by molar mass. Numbered stars: 1 amine (or outer) side, 2 acyl side, 3 side chain; on linkers, the order of the positions; unused ones are H or OH. Square brackets hold non-standard residues; d marks the D form. Peptide text beside a SMILES is read from it. * marks the point of attachment. X8 = NC(=O)CN(C[C@H](Cc1ccccc1)N*)S(=O)(=O)c1cc(C(F)(F)F)cc(C(F)(F)F)c1; X5 = NC(=O)CN(C[C@H](Cc1ccccc1)N*)S(=O)(=O)c1ccc(C(F)(F)F)cc1; X4 = N[C@@H](Cc1ccccc1)CN(CC(=O)[*:2])[*:1]; X7 = O=S(=O)(c1cc(C(F)(F)F)cc(C(F)(F)F)c1)*; X2 = CC(C)C[C@H](N)CN(CC(=O)[*:2])[*:1]; X1 = O=S(=O)(c1ccc(C(F)(F)F)cc1)*

How the values were obtained:
[1] = test system: Escherichia coli; assay: Antimicrobial activity against Escherichia coli ATCC 25922 assessed as inhibition of visible bacterial growth incubated for 18 hrs by broth-dilution method; assay type: functional
[2] = test system: Pseudomonas aeruginosa; assay: Antimicrobial activity against Pseudomonas aeruginosa ATCC 27853 assessed as inhibition of visible bacterial growth incubated for 18 hrs by broth-dilution method; assay type: functional
[3] = test system: Acinetobacter baumannii; assay: Antimicrobial activity against Acinetobacter baumannii ATCC 19606 assessed as inhibition of visible bacterial growth incubated for 18 hrs by broth-dilution method; assay type: functional
[4] = test system: Salmonella typhimurium; assay: Antimicrobial activity against Salmonella typhimurium ATCC 14028 assessed as inhibition of visible bacterial growth incubated for 18 hrs by broth-dilution method; assay type: functional, Salmonella enterica subsp. enterica serovar Typhimurium; settings: Salmonella enterica
[5] = test system: Staphylococcus aureus; assay: Antimicrobial activity against Staphylococcus aureus ATCC 25923 assessed as inhibition of visible bacterial growth incubated for 18 hrs by broth-dilution method; assay type: functional
[6] = test system: Staphylococcus epidermidis; assay: Antimicrobial activity against Staphylococcus epidermidis ATCC 12228 assessed as inhibition of visible bacterial growth incubated for 18 hrs by broth-dilution method; assay type: functional
[7] = test system: Bacillus subtilis; assay: Antimicrobial activity against Bacillus subtilis ATCC 23857 assessed as inhibition of visible bacterial growth incubated for 18 hrs by broth-dilution method; assay type: functional
[8] = test system: Staphylococcus aureus; assay: Antimicrobial activity against methicillin-resistant Staphylococcus aureus ATCC 33591 assessed as inhibition of visible bacterial growth incubated for 18 hrs by broth-dilution method; assay type: functional
[9] = test system: Erythrocyte; assay: Hemolytic activity against mouse Red blood cell incubated for 1 hr; assay type: toxicity, cell-based
[10] = test system: Staphylococcus aureus; assay: Antimicrobial activity against Staphylococcus aureus ATCC 25923 assessed as fold change in MIC in presence of salt solution; assay type: functional
[11] = test system: Staphylococcus aureus; assay: Antimicrobial activity against Staphylococcus aureus ATCC 25923 assessed as reduction in bacterial growth in presence of Ca2+; assay type: functional
[12] = Stability in human serum assessed as half life measured for 5 hrs by RP-HPLC analysis; assay type: ADME, cell-free
[13] = test system: Pseudomonas aeruginosa; assay: Antimicrobial activity against multidrug-resistant Pseudomonas aeruginosa 050 assessed as inhibition of visible bacterial growth incubated for 18 hrs by broth-dilution method; assay type: functional
[14] = test system: Pseudomonas aeruginosa; assay: Antimicrobial activity against multidrug-resistant Pseudomonas aeruginosa 061 assessed as inhibition of visible bacterial growth incubated for 18 hrs by broth-dilution method; assay type: functional
[15] = test system: Pseudomonas aeruginosa; assay: Antimicrobial activity against multidrug-resistant Pseudomonas aeruginosa 073 assessed as inhibition of visible bacterial growth incubated for 18 hrs by broth-dilution method; assay type: functional
[16] = test system: Pseudomonas aeruginosa; assay: Antimicrobial activity against multidrug-resistant Pseudomonas aeruginosa 085 assessed as inhibition of visible bacterial growth incubated for 18 hrs by broth-dilution method; assay type: functional
[17] = test system: Pseudomonas aeruginosa; assay: Antimicrobial activity against multidrug-resistant Pseudomonas aeruginosa 119 assessed as inhibition of visible bacterial growth incubated for 18 hrs by broth-dilution method; assay type: functional
[18] = test system: Pseudomonas aeruginosa; assay: Antimicrobial activity against multidrug-resistant Pseudomonas aeruginosa 124 assessed as inhibition of visible bacterial growth incubated for 18 hrs by broth-dilution method; assay type: functional
[19] = test system: Pseudomonas aeruginosa; assay: Antimicrobial activity against multidrug-resistant Pseudomonas aeruginosa 125 assessed as inhibition of visible bacterial growth incubated for 18 hrs by broth-dilution method; assay type: functional
[20] = test system: Pseudomonas aeruginosa; assay: Antimicrobial activity against multidrug-resistant Pseudomonas aeruginosa 156 assessed as inhibition of visible bacterial growth incubated for 18 hrs by broth-dilution method; assay type: functional
[21] = test system: Pseudomonas aeruginosa; assay: Antimicrobial activity against multidrug-resistant Pseudomonas aeruginosa 157 assessed as inhibition of visible bacterial growth incubated for 18 hrs by broth-dilution method; assay type: functional
[22] = test system: Pseudomonas aeruginosa; assay: Antimicrobial activity against multidrug-resistant Pseudomonas aeruginosa 516 assessed as inhibition of visible bacterial growth incubated for 18 hrs by broth-dilution method; assay type: functional
[23] = test system: Staphylococcus aureus; assay: Antimicrobial activity against methicillin-resistant Staphylococcus aureus 1 assessed as inhibition of visible bacterial growth incubated for 18 hrs by broth-dilution method; assay type: functional
[24] = test system: Staphylococcus aureus; assay: Antimicrobial activity against methicillin-resistant Staphylococcus aureus 2 assessed as inhibition of visible bacterial growth incubated for 18 hrs by broth-dilution method; assay type: functional
[25] = test system: Staphylococcus aureus; assay: Antimicrobial activity against methicillin-resistant Staphylococcus aureus 3 assessed as inhibition of visible bacterial growth incubated for 18 hrs by broth-dilution method; assay type: functional
[26] = test system: Staphylococcus aureus; assay: Antimicrobial activity against methicillin-resistant Staphylococcus aureus 4 assessed as inhibition of visible bacterial growth incubated for 18 hrs by broth-dilution method; assay type: functional
[27] = test system: Staphylococcus aureus; assay: Antimicrobial activity against methicillin-resistant Staphylococcus aureus 5 assessed as inhibition of visible bacterial growth incubated for 18 hrs by broth-dilution method; assay type: functional
[28] = test system: Staphylococcus aureus; assay: Antimicrobial activity against methicillin-resistant Staphylococcus aureus 6 assessed as inhibition of visible bacterial growth incubated for 18 hrs by broth-dilution method; assay type: functional
[29] = test system: Staphylococcus aureus; assay: Antimicrobial activity against methicillin-resistant Staphylococcus aureus 7 assessed as inhibition of visible bacterial growth incubated for 18 hrs by broth-dilution method; assay type: functional
[30] = test system: Staphylococcus aureus; assay: Antimicrobial activity against methicillin-resistant Staphylococcus aureus 8 assessed as inhibition of visible bacterial growth incubated for 18 hrs by broth-dilution method; assay type: functional
[31] = test system: Staphylococcus aureus; assay: Antimicrobial activity against methicillin-resistant Staphylococcus aureus 9 assessed as inhibition of visible bacterial growth incubated for 18 hrs by broth-dilution method; assay type: functional
[32] = test system: Staphylococcus aureus; assay: Antimicrobial activity against methicillin-resistant Staphylococcus aureus 10 assessed as inhibition of visible bacterial growth incubated for 18 hrs by broth-dilution method; assay type: functional

Compound	MIC [1] [µg/mL]	MIC [2] [µg/mL]	MIC [3] [µg/mL]	MIC [4] [µg/mL]	MIC [5] [µg/mL]	MIC [6] [µg/mL]	MIC [7] [µg/mL]	MIC [8] [µg/mL]	MHC [9] [µg/mL]	fold change (FC) [10]	MIC [11] [µg/mL]	half-life [12] [h]	further results
CC(C)C[C@H](NC(=O)[C@H](CC(C)C)NC(=O)[C@H](CCCCN)NC(=O)[C@H](CC(C)C)NC(=O)[C@@H](N)Cc1ccccc1)C(=O)N[C@@H](CCCCN)C(=O)N[C@@H](CCCCN)C(=O)N[C@@H](Cc1ccccc1)CN(CC(N)=O)S(=O)(=O)c1ccc(C(F)(F)F)cc1 (H-FLKLLKK-X5)	32 (≈ 24.9 µM)	8 (≈ 6.22 µM)	16 (≈ 12.4 µM)	16 (≈ 12.4 µM)	8 (≈ 6.22 µM)	4 (≈ 3.11 µM)	4 (≈ 3.11 µM)	8 (≈ 6.22 µM)	128	0.25	32	2.61	
CC(C)C[C@H](NC(=O)[C@H](C)NC(=O)[C@H](CCCCN)NC(=O)[C@H](CC(C)C)NC(=O)[C@@H](N)Cc1ccccc1)C(=O)N[C@@H](CCCCN)C(=O)N[C@@H](CCCCN)C(=O)N[C@@H](Cc1ccccc1)CN(CC(N)=O)S(=O)(=O)c1cc(C(F)(F)F)cc(C(F)(F)F)c1 (H-FLKALKK-X8)	32 (≈ 24.4 µM)	16 (≈ 12.2 µM)	128 (≈ 97.5 µM)	32 (≈ 24.4 µM)	16 (≈ 12.2 µM)	16 (≈ 12.2 µM)	16 (≈ 12.2 µM)	16 (≈ 12.2 µM)	256				
H-FLKLLKKLL-NH2	32	8	16	16	16	16	4	16	256			1.09	MIC [13]: 8 µg/mL; MIC [14]: 8 µg/mL; MIC [15]: 8 µg/mL; MIC [16]: 8 µg/mL; MIC [17]: 4 µg/mL; MIC [18]: 8 µg/mL; MIC [19]: 8 µg/mL; MIC [20]: 8 µg/mL; MIC [21]: 8 µg/mL; MIC [22]: 8 µg/mL; MIC [23]: 4 µg/mL; MIC [24]: 8 µg/mL; MIC [25]: 4 µg/mL; MIC [26]: 8 µg/mL; MIC [27]: 8 µg/mL; MIC [28]: 8 µg/mL; MIC [29]: 4 µg/mL; MIC [30]: 8 µg/mL; MIC [31]: 4 µg/mL; MIC [32]: 4 µg/mL
CC(C)C[C@H](NC(=O)[C@H](CC(C)C)NC(=O)[C@H](CCCCN)NC(=O)[C@H](CCCCN)NC(=O)[C@H](CC(C)C)NC(=O)[C@H](C)NC(=O)[C@H](CCCCN)NC(=O)CN(C[C@@H](N)Cc1ccccc1)S(=O)(=O)c1cc(C(F)(F)F)cc(C(F)(F)F)c1)C(N)=O (X7-[X4]KALKKLL-NH2)	16 (≈ 12.5 µM)	16 (≈ 12.5 µM)	16 (≈ 12.5 µM)	8 (≈ 6.26 µM)	8 (≈ 6.26 µM)	8 (≈ 6.26 µM)	4 (≈ 3.13 µM)	8 (≈ 6.26 µM)	128				
CC(C)C[C@H](NC(=O)[C@H](CC(C)C)NC(=O)[C@H](CCCCN)NC(=O)[C@H](CCCCN)NC(=O)[C@H](CC(C)C)NC(=O)[C@H](CC(C)C)NC(=O)[C@H](CCCCN)NC(=O)CN(C[C@@H](N)Cc1ccccc1)S(=O)(=O)c1ccc(C(F)(F)F)cc1)C(N)=O (X1-[X4]KLLKKLL-NH2)	8 (≈ 6.39 µM)	8 (≈ 6.39 µM)	16 (≈ 12.8 µM)	8 (≈ 6.39 µM)	8 (≈ 6.39 µM)	4 (≈ 3.19 µM)	4 (≈ 3.19 µM)	4 (≈ 3.19 µM)	32	0.25	32	7.96	
CC(C)C[C@H](N)CN(CC(=O)N[C@@H](CCCCN)C(=O)N[C@@H](CC(C)C)C(=O)N[C@@H](CC(C)C)C(=O)N[C@@H](CCCCN)C(=O)N[C@@H](CCCCN)C(=O)N[C@@H](CC(C)C)C(=O)N[C@@H](CC(C)C)C(N)=O)S(=O)(=O)c1cc(C(F)(F)F)cc(C(F)(F)F)c1 (X7-[X2]KLLKKLL-NH2)	8 (≈ 6.22 µM)	4 (≈ 3.11 µM)	16 (≈ 12.4 µM)	16 (≈ 12.4 µM)	8 (≈ 6.22 µM)	16 (≈ 12.4 µM)	16 (≈ 12.4 µM)	4 (≈ 3.11 µM)	128	0.25	32	3.33	
CC(C)C[C@H](NC(=O)[C@H](CC(C)C)NC(=O)[C@H](CCCCN)NC(=O)[C@H](CC(C)C)NC(=O)[C@@H](N)Cc1ccccc1)C(=O)N[C@@H](CCCCN)C(=O)N[C@@H](CCCCN)C(=O)N[C@@H](Cc1ccccc1)CN(CC(N)=O)S(=O)(=O)c1cc(C(F)(F)F)cc(C(F)(F)F)c1 (H-FLKLLKK-X8)	8 (≈ 5.91 µM)	16 (≈ 11.8 µM)	16 (≈ 11.8 µM)	8 (≈ 5.91 µM)	4 (≈ 2.95 µM)	4 (≈ 2.95 µM)	4 (≈ 2.95 µM)	4 (≈ 2.95 µM)	64			3.31	
CC(C)C[C@H](NC(=O)[C@H](CC(C)C)NC(=O)[C@H](CCCCN)NC(=O)[C@H](CCCCN)NC(=O)[C@H](CC(C)C)NC(=O)[C@H](CC(C)C)NC(=O)[C@H](CCCCN)NC(=O)CN(C[C@@H](N)Cc1ccccc1)S(=O)(=O)c1cc(C(F)(F)F)cc(C(F)(F)F)c1)C(N)=O (X7-[X4]KLLKKLL-NH2)	8 (≈ 6.06 µM)	8 (≈ 6.06 µM)	16 (≈ 12.1 µM)	8 (≈ 6.06 µM)	4 (≈ 3.03 µM)	8 (≈ 6.06 µM)	4 (≈ 3.03 µM)	8 (≈ 6.06 µM)	32			5.6	
CC1(C)S[C@@H]2[C@H](NC(=O)[C@H](N)c3ccc(O)cc3)C(=O)N2[C@H]1C(=O)O [AMOXICILLIN]	4 (≈ 10.9 µM)	256 (≈ 701 µM)	128 (≈ 350 µM)	256 (≈ 701 µM)	1 (≈ 2.74 µM)	256 (≈ 701 µM)	256 (≈ 701 µM)	128 (≈ 350 µM)					MIC [23]: 4 µg/mL (≈ 10.9 µM); MIC [24]: 4 µg/mL (≈ 10.9 µM); MIC [25]: 4 µg/mL (≈ 10.9 µM); MIC [26]: 8 µg/mL (≈ 21.9 µM); MIC [27]: 32 µg/mL (≈ 87.6 µM); MIC [28]: 32 µg/mL (≈ 87.6 µM); MIC [29]: 16 µg/mL (≈ 43.8 µM); MIC [30]: 4 µg/mL (≈ 10.9 µM); MIC [31]: 8 µg/mL (≈ 21.9 µM); MIC [32]: 32 µg/mL (≈ 87.6 µM)
